ChEMBL document CHEMBL5465560, “Selectivity Literature for EUbOPEN Chemogenomic Library” (2024)
Each block holds one molecule with its values, some of them ahead of it.

Columns and labels:
[1] = system: T1, Receptor-type tyrosine-protein kinase FLT3 (Homo sapiens), P36888 [D835V]; experiment: (§1) Selectivity interaction (KinomeScan (DiscoverX)) EUB0001049a FLT3; conditions: at 1 µM
T1 sequence (whole entry): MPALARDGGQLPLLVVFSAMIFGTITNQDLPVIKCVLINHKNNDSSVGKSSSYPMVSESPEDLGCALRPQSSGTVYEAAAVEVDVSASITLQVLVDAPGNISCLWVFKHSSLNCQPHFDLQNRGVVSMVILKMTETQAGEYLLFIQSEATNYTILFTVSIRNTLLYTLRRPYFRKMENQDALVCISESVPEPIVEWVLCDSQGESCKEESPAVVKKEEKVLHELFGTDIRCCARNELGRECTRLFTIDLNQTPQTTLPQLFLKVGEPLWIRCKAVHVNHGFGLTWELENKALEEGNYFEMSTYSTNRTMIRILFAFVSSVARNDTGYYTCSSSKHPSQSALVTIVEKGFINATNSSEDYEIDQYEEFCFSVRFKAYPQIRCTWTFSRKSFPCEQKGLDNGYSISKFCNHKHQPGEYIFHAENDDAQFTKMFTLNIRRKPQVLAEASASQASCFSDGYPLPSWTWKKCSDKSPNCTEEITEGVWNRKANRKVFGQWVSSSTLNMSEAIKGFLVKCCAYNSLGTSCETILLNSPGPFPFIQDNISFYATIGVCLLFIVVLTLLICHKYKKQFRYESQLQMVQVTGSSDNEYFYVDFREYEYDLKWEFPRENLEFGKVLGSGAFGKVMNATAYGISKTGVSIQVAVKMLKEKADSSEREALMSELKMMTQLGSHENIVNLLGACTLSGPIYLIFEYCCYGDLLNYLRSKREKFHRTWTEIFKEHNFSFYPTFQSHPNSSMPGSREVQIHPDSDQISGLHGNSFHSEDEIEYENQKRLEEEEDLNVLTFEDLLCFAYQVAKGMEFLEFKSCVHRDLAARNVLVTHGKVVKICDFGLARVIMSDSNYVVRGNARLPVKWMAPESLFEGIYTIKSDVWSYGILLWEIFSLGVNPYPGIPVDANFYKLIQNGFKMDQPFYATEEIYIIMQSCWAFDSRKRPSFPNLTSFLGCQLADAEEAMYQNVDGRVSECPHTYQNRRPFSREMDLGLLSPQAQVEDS

[2] = system: Receptor-type tyrosine-protein kinase FLT3 (Homo sapiens), P36888 [UNDEFINED MUTATION]; experiment: as §1; conditions: at 1 µM
[3] = molecular target: Glycogen synthase kinase-3 alpha (Homo sapiens, UniProt P49840); experiment: Selectivity interaction (ActivX KiNativ screen (kinase selectivity in THP-1 cell lysates)) EUB0000639a GSK3A; format: subcellular; conditions: lysate
[4] = molecular target: Histone-lysine N-methyltransferase 2A (Homo sapiens) (UniProt Q03164); experiment: Selectivity interaction (Transferase panel (protein, RNA, and DNA methyltransferases. and EP300 (acetyltransferase))) EUB0000270b MLL
[5] = molecular target: Tyrosine-protein kinase JAK2 (Homo sapiens, UniProt O60674); experiment: Selectivity interaction (Kinase panel (Carna Biosciences)) EUB0001542aTs JAK2; conditions: at 1 µM
[6] = molecular target: Serine/threonine-protein kinase VRK2 (Homo sapiens) (UniProt Q86Y07); experiment: Selectivity interaction (LanthaScreen Eu Kinase Binding Assay) EUB0001632a VRK2; conditions: at 10 µM
[7] = molecular target: T2, Mitogen-activated protein kinase 12 (Homo sapiens) (UniProt P53778); experiment: Selectivity interaction (ProQinase) EUB0000171b MAPK12
T2 sequence (whole entry): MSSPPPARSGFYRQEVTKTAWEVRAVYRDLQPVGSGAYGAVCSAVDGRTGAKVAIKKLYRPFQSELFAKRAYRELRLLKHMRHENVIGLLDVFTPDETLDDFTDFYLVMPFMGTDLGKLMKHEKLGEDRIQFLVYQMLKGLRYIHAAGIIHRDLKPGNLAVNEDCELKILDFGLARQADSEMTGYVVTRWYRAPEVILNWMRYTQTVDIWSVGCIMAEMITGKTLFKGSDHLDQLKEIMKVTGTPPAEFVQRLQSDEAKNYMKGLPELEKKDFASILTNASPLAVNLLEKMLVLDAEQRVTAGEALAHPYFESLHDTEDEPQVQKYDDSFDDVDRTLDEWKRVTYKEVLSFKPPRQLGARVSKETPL

[8] = molecular target: T3, Phosphatidylinositol 5-phosphate 4-kinase type-2 beta (Homo sapiens) (UniProt P78356); experiment: Selectivity interaction (KinomeScan (DiscoverX)) EUB0000045b PIP4K2B
T3 sequence (whole entry): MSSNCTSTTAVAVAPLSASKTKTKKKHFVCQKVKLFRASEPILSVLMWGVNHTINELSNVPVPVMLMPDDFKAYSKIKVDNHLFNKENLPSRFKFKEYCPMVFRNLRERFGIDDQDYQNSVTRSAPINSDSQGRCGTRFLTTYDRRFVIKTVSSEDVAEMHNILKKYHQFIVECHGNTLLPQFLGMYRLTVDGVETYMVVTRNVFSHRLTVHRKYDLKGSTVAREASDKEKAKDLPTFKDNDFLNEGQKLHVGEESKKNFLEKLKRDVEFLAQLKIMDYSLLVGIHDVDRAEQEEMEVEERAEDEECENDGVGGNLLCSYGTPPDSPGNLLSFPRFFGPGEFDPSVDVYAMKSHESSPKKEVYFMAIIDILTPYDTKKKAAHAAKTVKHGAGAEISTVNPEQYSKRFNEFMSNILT

[9] = molecular target: Tyrosine-protein kinase Fer (Homo sapiens) (UniProt P16591); experiment: Selectivity interaction (KinomeScan (DiscoverX)) EUB0001619a FER; conditions: at 1 µM
[10] = molecular target: Mitogen-activated protein kinase 14 (Homo sapiens, UniProt Q16539); experiment: Selectivity interaction (KinomeScan (DiscoverX)) EUB0001619a MAPK14; conditions: at 1 µM
[11] = molecular target: Serine/threonine-protein kinase 38 (Homo sapiens) (UniProt Q15208); experiment: Selectivity interaction (KinomeScan (DiscoverX)) EUB0000618a STK38; conditions: at 10 µM
[12] = molecular target: Dual specificity testis-specific protein kinase 1 (Homo sapiens) (UniProt Q15569); experiment: Selectivity interaction (KinomeScan (DiscoverX)) EUB0000618a TESK1; conditions: at 10 µM

Chain of Glycogen synthase kinase-3 alpha (P49840 2-483 limits assumed): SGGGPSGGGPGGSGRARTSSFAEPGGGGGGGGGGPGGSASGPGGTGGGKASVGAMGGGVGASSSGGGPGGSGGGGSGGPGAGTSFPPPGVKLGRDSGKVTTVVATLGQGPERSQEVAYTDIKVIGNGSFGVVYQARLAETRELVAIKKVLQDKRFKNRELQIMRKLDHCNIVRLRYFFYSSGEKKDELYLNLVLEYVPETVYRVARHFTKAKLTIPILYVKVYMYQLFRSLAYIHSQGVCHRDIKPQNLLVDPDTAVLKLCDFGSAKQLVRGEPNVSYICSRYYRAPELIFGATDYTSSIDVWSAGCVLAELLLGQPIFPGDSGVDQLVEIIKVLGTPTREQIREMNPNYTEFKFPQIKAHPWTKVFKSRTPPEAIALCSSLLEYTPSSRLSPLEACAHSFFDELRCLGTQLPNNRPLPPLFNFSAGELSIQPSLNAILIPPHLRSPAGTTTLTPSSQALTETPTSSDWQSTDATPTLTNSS
Chain of Histone-lysine N-methyltransferase 2A (Homo sapiens) (Q03164 1-2718 limits assumed): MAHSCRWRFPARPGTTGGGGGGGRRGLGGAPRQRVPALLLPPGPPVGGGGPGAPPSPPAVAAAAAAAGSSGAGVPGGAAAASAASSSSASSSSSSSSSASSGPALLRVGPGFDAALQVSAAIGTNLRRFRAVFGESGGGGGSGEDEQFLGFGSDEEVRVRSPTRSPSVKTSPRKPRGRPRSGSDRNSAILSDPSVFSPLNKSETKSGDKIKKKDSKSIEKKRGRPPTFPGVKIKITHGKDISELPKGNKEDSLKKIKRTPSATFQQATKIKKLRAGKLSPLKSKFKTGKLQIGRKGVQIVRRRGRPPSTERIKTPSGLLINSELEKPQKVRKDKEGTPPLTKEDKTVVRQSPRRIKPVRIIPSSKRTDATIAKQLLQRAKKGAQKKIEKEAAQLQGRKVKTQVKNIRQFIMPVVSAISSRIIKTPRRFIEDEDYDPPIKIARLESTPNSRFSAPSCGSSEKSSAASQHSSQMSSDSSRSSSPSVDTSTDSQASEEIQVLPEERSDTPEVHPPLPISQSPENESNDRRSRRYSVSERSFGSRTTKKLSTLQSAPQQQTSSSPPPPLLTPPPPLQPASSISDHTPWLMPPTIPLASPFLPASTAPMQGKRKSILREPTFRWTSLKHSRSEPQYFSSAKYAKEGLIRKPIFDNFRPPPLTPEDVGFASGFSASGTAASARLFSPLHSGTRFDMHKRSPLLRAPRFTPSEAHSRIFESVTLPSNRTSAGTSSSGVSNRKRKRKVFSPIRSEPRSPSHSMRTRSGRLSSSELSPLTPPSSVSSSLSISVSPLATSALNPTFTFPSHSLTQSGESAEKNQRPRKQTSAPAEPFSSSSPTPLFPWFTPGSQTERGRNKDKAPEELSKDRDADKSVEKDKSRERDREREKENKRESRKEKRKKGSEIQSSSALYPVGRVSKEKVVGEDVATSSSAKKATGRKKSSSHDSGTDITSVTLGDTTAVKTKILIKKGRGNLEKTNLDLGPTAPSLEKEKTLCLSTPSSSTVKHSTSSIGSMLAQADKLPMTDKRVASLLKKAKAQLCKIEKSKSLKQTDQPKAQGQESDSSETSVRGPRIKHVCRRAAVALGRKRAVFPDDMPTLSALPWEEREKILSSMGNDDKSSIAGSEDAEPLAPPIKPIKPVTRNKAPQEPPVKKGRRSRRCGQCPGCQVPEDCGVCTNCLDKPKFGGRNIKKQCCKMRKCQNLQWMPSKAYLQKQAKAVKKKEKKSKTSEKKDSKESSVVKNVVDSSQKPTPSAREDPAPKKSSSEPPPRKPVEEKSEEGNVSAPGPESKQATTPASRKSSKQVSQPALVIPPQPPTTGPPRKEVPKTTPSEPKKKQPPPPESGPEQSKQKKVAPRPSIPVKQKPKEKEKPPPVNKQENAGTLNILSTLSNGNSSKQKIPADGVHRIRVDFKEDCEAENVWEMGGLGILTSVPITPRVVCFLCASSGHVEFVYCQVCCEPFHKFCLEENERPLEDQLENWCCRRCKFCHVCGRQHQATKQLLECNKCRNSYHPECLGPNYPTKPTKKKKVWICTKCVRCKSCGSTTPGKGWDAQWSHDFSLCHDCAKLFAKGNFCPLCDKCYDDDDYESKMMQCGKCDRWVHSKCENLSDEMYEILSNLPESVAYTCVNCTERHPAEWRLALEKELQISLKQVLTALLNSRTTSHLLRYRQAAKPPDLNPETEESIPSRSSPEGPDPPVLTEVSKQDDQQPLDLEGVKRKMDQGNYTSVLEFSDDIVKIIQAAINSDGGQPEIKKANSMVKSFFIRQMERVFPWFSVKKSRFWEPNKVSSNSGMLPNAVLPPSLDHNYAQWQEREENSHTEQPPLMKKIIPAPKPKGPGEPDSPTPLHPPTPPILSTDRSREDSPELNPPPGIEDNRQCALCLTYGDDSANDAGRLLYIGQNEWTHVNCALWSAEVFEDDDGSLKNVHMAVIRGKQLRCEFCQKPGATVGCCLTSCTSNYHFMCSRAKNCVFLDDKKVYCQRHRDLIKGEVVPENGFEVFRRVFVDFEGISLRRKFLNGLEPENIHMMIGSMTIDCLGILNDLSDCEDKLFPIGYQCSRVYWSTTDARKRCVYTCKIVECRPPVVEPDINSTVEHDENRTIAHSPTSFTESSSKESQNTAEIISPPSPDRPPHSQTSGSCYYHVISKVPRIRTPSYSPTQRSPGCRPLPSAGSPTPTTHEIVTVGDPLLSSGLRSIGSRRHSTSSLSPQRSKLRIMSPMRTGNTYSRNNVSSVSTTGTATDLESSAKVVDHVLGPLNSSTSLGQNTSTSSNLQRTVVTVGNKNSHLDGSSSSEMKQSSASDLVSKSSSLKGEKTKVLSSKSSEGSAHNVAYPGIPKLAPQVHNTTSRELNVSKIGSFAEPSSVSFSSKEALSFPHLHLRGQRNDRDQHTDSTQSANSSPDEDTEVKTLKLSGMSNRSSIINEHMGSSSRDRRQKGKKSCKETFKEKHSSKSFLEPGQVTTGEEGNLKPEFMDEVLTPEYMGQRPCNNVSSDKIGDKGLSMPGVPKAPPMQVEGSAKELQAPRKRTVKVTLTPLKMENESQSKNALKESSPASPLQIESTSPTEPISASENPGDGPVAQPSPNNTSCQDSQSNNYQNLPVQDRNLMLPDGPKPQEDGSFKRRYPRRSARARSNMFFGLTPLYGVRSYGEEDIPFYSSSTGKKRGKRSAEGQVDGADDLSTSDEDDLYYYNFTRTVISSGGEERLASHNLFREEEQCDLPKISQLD
Chain of Histone-lysine N-methyltransferase 2A (Homo sapiens) (Q03164 2719-3969 limits assumed): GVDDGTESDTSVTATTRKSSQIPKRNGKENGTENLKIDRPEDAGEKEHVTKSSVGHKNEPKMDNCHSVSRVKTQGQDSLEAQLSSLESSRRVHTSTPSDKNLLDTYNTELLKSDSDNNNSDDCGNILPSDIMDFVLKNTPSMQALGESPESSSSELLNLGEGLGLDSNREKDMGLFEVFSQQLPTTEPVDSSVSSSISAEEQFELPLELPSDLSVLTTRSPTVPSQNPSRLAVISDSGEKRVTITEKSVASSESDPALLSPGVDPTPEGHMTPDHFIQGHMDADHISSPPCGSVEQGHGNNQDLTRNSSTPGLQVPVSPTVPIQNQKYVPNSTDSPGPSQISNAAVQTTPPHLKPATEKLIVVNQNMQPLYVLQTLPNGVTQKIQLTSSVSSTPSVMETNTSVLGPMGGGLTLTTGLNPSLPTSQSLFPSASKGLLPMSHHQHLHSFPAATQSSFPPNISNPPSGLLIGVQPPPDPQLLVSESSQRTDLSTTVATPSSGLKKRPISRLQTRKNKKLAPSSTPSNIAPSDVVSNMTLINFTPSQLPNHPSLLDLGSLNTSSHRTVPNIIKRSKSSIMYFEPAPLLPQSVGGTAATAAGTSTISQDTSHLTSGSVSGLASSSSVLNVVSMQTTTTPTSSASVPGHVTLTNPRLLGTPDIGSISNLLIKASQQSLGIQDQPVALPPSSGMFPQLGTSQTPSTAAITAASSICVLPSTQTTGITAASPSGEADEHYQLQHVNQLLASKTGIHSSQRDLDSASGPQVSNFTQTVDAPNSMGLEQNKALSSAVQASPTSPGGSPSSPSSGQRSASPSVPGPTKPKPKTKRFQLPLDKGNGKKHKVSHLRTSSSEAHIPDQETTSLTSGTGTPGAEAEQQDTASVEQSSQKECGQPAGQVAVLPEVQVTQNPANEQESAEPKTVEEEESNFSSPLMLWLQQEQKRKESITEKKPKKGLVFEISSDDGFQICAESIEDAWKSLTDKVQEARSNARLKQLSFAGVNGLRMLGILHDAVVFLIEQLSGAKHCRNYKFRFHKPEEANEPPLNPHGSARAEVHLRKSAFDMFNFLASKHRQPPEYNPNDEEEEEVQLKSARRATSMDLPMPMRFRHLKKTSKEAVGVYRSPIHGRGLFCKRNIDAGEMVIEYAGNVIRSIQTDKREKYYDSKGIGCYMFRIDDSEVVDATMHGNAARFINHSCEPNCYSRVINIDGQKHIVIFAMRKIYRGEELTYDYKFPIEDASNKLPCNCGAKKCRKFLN
Chain of Serine/threonine-protein kinase VRK2 (Homo sapiens) (Q86Y07 whole entry): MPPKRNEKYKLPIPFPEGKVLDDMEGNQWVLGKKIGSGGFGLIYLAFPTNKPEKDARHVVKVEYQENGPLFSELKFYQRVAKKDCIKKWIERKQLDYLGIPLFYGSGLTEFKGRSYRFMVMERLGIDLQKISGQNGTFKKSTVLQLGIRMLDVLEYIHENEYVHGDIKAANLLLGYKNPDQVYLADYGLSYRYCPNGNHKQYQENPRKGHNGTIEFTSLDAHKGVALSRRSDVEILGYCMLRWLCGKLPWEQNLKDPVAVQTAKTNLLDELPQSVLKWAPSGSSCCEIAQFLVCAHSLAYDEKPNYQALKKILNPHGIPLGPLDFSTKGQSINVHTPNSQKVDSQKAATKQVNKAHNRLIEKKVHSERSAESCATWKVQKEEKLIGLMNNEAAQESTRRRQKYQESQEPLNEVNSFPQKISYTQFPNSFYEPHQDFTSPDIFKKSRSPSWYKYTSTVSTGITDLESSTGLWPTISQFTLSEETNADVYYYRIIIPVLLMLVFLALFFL

% activity ([4]; at 1 µM): > 90%
% activity ([4]; at 10 µM): > 80%
SMILES: Cc1cc(CN)cc(C)c1-c1ncn(C)c1-c1cncn1C

% of inhibition [5]: 94%
SMILES: Cn1cc(Nc2nccc(N3CC4CCC(C3)N4C(=O)[C@@H]3CC3(F)F)n2)cn1

% of inhibition [6]: -14%
SMILES: Cn1cc(-n2cnc3c(NCc4nc5cc(Cl)c(Cl)cc5[nH]4)nc(N4CCOCC4)nc32)cn1

% of control ([7]; at 1 µM): 94%
% of control ([7]; at 5 µM): 87%
SMILES: C=CC(=O)Nc1cccc(C(=O)Nc2ccc(Nc3cc(-c4[nH]c(SC)nc4C)ccn3)cc2)c1

The remaining lines, values behind:

SMILES: COc1cc(Nc2nc(C)cc(-c3cnn4nc(OC)ccc34)n2)cc(C(F)(F)F)c1
% of control [1]: 86%
% of control [2]: 81%

SMILES: CC[C@@H]1[C@H](F)C(=O)N[C@@H]1COc1nccc2cc(C(N)=O)c(OC)cc12 [ZIMLOVISERTIB]
% of inhibition ([3]; at 0.01 µM): -6%
% of inhibition ([3]; at 0.04 µM): -6.7%
% of inhibition ([3]; at 0.2 µM): -1.9%
% of inhibition ([3]; at 1 µM): 8.1%
% of inhibition ([3]; at 5 µM): 18.5%

SMILES: C=CC(=O)Nc1cc(-n2c(=O)ccc3cnc4ccc(-c5ccc(NS(C)(=O)=O)cc5)cc4c32)ccc1C
% of control ([8]; at 1 µM): 93%
% of control ([8]; at 10 µM): 63%

SMILES: N#Cc1cccc(-c2c[nH]c3ncnc(N4CCOCC4)c23)c1
% of control [9]: 84%
% of control [10]: 100%

SMILES: O[C@H]1CC[C@H](Nc2ncc3nc(Nc4c(F)cc(F)cc4F)n([C@H]4CCOC4)c3n2)CC1
% of control [11]: 100%
% of control [12]: 78%
